Test results from patent publication US5681836A, “Methanesulfonate salts of antipsychotic benzofuran derivatives” (Merck, Sharp & Dohme, Ltd., priority 1995, dated 1997).
Counter-ions that a name gives are not always drawn.

Target: T1, human dopamine D4 receptor subtype (Homo sapiens, UniProt P21917)
T1 sequence (P21917 1-419): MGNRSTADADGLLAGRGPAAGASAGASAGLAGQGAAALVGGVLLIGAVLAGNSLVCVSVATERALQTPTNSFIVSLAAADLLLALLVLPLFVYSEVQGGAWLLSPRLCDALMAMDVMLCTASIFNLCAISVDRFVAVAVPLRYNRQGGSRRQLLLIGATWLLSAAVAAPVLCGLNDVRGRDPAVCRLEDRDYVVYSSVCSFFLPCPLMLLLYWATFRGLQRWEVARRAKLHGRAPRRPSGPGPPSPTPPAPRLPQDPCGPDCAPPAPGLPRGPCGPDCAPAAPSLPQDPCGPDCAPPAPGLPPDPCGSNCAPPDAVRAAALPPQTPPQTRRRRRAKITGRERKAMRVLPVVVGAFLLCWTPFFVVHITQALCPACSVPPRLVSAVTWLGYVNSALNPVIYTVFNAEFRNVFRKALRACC
Assay: [3H]-Spiperone binding (displacement) studies, human dopamine D4 receptor subtype expressed in clonal cell lines
Settings: 0.2 nM [3H]-spiperone for displacement; 60 min, room temperature (22° C.), pH 7.4; membranes of clonal cell lines; read-out: Ki value for displacement of [3H]-spiperone from the human dopamine D4 receptor subtype
Method: Moreover, these salts display a selective affinity for the D4 subtype relative to the D2 subtype.
Clonal cell lines expressing the human dopamine D4 receptor subtype were harvested in PBS and then lysed in 10 mM Tris-HCl pH 7.4 buffer containing 5 mM MgSO4 for 20 min on ice. Membranes were centrifuged at 50,000 g for 15 min at 4° C. and the resulting pellets resuspended in assay buffer (50 mM Tris-HCl pH 7.4 containing 5 mM EDTA, 1.5 mM CaCl2, 5 mM MgCl2, 5 mM KCl, 120 mM NaCl, and 0.1% ascorbic acid) at 20 mg/ml wet weight. Incubations were carried out for 60 min at room temperature (22° C.) in the presence of 0.05-2 nM [^3 H]-spiperone or 0.2 nM for displacement studies and were initiated by addition of 20-100 μg protein in a final assay volume of 0.5 ml. The incubation was terminated by rapid filtration over GF/B filters presoaked in 0.3% PEI and washed with 10 ml ice-cold 50 mM Tris-HCl, pH 7.4. Specific binding was determined by 10 μM apomorphine and radioactivity determined by counting in a LKB beta counter. Binding parameters were determined by non-linear least squares regression analysis, from which the inhibition constant Ki could be calculated for each test compound.

## C1=C(/C=C/c2ccccc2)CCN(Cc2coc3ccccc23)C1 [Example 1, (E)-3-[4-(2-Phenylethenyl)-1,2,3,6-tetrahydropyridin-1-yl]methylbenzo[b]furan methanesulfonate salt]
  Ki: < 1.5 µM
